Data: patent US20250177502A1, “THROMBIN AND FIBRINOGEN AS TARGETS FOR ATOPIC DERMATITIS DIAGNOSIS AND TREATMENT” (Children's Hospital Medical Center, priority 2022, published 2025)

Columns and labels:
[1] = Absorption of topically applied bivalirudin: prothrombin time on homogenized ex vivo mouse skin samples; assay type: in vitro ADME; conditions: reconstituted bivalirudin 50 mg/mL applied to ex vivo mouse skin for 0, 5 or 15 minutes, then washed
Procedure: Reconstituted bivalirudin was applied to ex vivo mouse skin samples for 0, 5, or 15 minutes then repeatedly washed, the samples were homogenized, and finally a prothrombin time was run on the homogenized skin samples. […] FIG. 10 illustrates absorption of topically applied bivalirudin by measuring prothrombin time.

[2] = Bivalirudin solubility and precipitation in aqueous solutions; assay type: physicochemical
Procedure: Direct thrombin inhibitor bivalirudin was formulated in a lyophilized formulation containing 50 mg/mL of bivalirudin, 25 mg/mL of mannitol, and NaOH for pH adjustment to 5-6. […] The lyophilized bivalirudin was reconstituted with 5 mL water to a concentration of 50 mg/mL.

With `CC[C@H](C)[C@H](NC(=O)[C@H](CCC(=O)O)NC(=O)[C@H](CCC(=O)O)NC(=O)[C@H](Cc1ccccc1)NC(=O)[C@H](CC(=O)O)NC(=O)CNC(=O)[C@H](CC(N)=O)NC(=O)CNC(=O)CNC(=O)CNC(=O)CNC(=O)[C@@H]1CCCN1C(=O)[C@H](CCCNC(=N)N)NC(=O)[C@@H]1CCCN1C(=O)[C@H](N)Cc1ccccc1)C(=O)N1CCC[C@H]1C(=O)N[C@@H](CCC(=O)O)C(=O)N[C@@H](CCC(=O)O)C(=O)N[C@@H](Cc1ccc(O)cc1)C(=O)N[C@@H](CC(C)C)C(=O)O` [bivalirudin] the “absorption by skin and retained function (prothrombin time of homogenized skin)” value [1] was “is absorbed and retains function”, the “solubility: influence of pH” value [2] was “influenced by pH” and the “solubility: influence of temperature and addition of mannitol” value [2] was “not affected”.
